Like-named read-outs stand apart in the source and are kept apart here.
How the values were obtained:
CRFK cells = test: Cytotoxicity control on the titration cells; conditions: 0.7% Formaldehyde, neutralised
Experimental: (§1) In addition, the formaldehyde cytotoxicity of neutralised formaldehyde is determined to measure assay sensitivity.
(§2) TCID50 was determined by the method of Karber (1Kärber, G.: Beitrag zur Kollektiven Behandlung Pharmakologischer Reihenversuche. Arch. Exp. Path. Pharmak. 162 (1931): 480-487.). Test virus suspension has at least a concentration which allows the determination of a 4 log10 reduction of the virus titre. The number of infectious virus particles is quantified by using the Median Tissue Culture Infectious Dose (TCID50) assay. The assay works by adding a serial dilution of the virus sample to cells in a 96 well plate format. The type of cell is specifically selected to show a cytopathic effect (CPE), i.e. morphological changes upon infection with the virus or cell death. After an incubation period, the cells are inspected for CPE or cell death and each well is classified as infected or not infected. Colorimetric or fluorometric readouts are also possible, which can increase assay sensitivity. The dilution, at which 50% of the wells show a CPE, is used to calculate the TCID50 of the virus sample. This calculation can generally be done by a variety of mathematical approaches, e.g., the Spearman-Karber method or the Reed-Muench method. Virus quantity is expressed as TCID50/ml.

[1] = system: Feline coronavirus ATCC VR-989; conditions: 0.7% Formaldehyde
Experimental: as §1, §2

C=O [Formaldehyde, formaldehyde]
Cytotoxicity TCID50/ml (CRFK cells): 3.16E+02 TCID50/ml | Cytotoxicity log (TCID50/ml) (CRFK cells): 2.50 log | TCID50/ml (recovered virus) ([1]; exposure time 30 mins): 3.16E+02 TCID50/ml | log (TCID50/ml) ([1]; exposure time 30 mins): 2.50 log | log difference ([1]; exposure time 30 mins): 3.17 log | TCID50/ml (recovered virus) ([1]; exposure time 60 mins): 3.16E+02 TCID50/ml | log (TCID50/ml) ([1]; exposure time 60 mins): 2.50 log | log difference ([1]; exposure time 60 mins): 3.17 log

— US20240180160A1, “ANTIVIRAL POLYMER MATERIAL” (VALE BROTHERS LIMITED, priority 2021, published 2024)
